Laboratory results reported in PubChem BioAssay (NCI).
Where “and” joins values, the source holds several entries; their conditions need not be identical. Identical values can stand only once.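 Tested at 5 concentrations; 48 h exposure; 96-well plates; endpoints linearly interpolated, else capped at highest concentration. Abbreviation: GI50, concentration required for 50% inhibition of growth. TGI: total growth inhibition.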

Assays:
Test in all cases: NCI-60 cell line screen, 48 h
[1] = test system: HCC-2998 colon
[2] = test system: OVCAR-3 ovarian
[3] = test system: CAKI-1 renal
[4] = test system: MDA-MB-231 breast
[5] = test system: NCI/ADR-RES ovarian
[6] = test system: SF-539 CNS
[7] = test system: SR leukemia
[8] = test system: IGROV1 ovarian
[9] = test system: NCI-H23 lung
[10] = test system: ACHN renal

COc1cc(OC)cc(-c2ccc(-c3ccc(C(=N)N)cn3)s2)c1
GI50 [1]: 1.84 µM
TGI [1]: 3.48 µM
GI50 [2]: 1.77 µM
TGI [2]: 3.2 µM
GI50 [3]: 1.73 µM
TGI [3]: 3.2 µM
GI50 [4]: 1.79 µM
TGI [4]: 3.51 µM
GI50 [5]: 3.27 µM
TGI [5]: 11.6 µM
GI50 [6]: 1.71 µM
TGI [6]: 3.13 µM
GI50 [7]: 3.51 µM
TGI [7]: 10.9 µM
GI50 [8]: 1.9 µM
TGI [8]: 3.73 µM
GI50 [9]: 1.78 µM
TGI [9]: 3.5 µM
GI50 [10]: 1.81 µM
TGI [10]: 3.2 µM

O=c1nc2[nH]c3c(-c4n[nH]c(=O)[nH]c4=O)cccc3c2n[nH]1
GI50 [1]: > 100 µM
TGI [1]: > 100 µM
GI50 [2]: > 100 µM
TGI [2]: > 100 µM
GI50 [3]: > 100 µM
TGI [3]: > 100 µM
GI50 [4]: > 100 µM
TGI [4]: > 100 µM
GI50 [5]: > 100 µM
TGI [5]: > 100 µM
GI50 [6]: > 100 µM
TGI [6]: > 100 µM
GI50 [7]: > 100 µM
TGI [7]: > 100 µM
GI50 [8]: > 100 µM
TGI [8]: > 100 µM
GI50 [9]: > 100 µM
TGI [9]: > 100 µM
GI50 [10]: > 100 µM
TGI [10]: > 100 µM

CC1OC(OC2C(O[C@H]3CC[C@@]4(C)C(=CC[C@H]5[C@@H]6C[C@@H]7O[C@]8(CC[C@@H](C)CO8)[C@@H](C)[C@@H]7[C@@]6(C)CC[C@@H]54)C3)OC(CO)C(OC3OC(CO)C(O)C3O)C2O)C(O)C(O)C1O (some centres undefined)
TGI [1]: 1.19 µM
GI50 [2]: 1.49 µM
TGI [2]: 1.79 µM and 2.82 µM
GI50 [3]: 0.602 µM
TGI [3]: 1.76 µM and 1.86 µM
GI50 [4]: 0.497 µM
TGI [4]: 1.6 µM and 1.65 µM
GI50 [5]: 1.19 µM
TGI [5]: 1.79 µM and 2.44 µM
GI50 [6]: 0.343 µM
TGI [6]: 1.3 µM and 1.08 µM
TGI [7]: 2.25 µM
GI50 [8]: 0.45 µM
TGI [8]: 1.61 µM and 1.62 µM
GI50 [9]: 1.23 µM
TGI [9]: 1.6 µM and 2.47 µM
TGI [10]: 1.58 µM and 2.12 µM

CCN(CC)CCOc1ccc2c(C)c(C(=O)OC)oc2c1C(=O)/C=C/c1ccc(OC)cc1
GI50 [1]: 1.86 µM
TGI [1]: 3.72 µM
GI50 [2]: 4.36 µM
TGI [2]: 12.2 µM
GI50 [3]: 3.82 µM
TGI [3]: 10.7 µM
GI50 [4]: 3.79 µM
TGI [4]: 11.2 µM
GI50 [5]: 2.58 µM
TGI [5]: 6.53 µM
GI50 [6]: 16.3 µM
TGI [6]: 32.2 µM
GI50 [7]: 0.565 µM
TGI [7]: 2.95 µM
GI50 [8]: 0.246 µM
TGI [8]: 2.75 µM
GI50 [9]: 2.93 µM
TGI [9]: 8.34 µM
GI50 [10]: 1.85 µM
TGI [10]: 5.25 µM

O=C(C(=O)c1cc(Br)ccc1O)c1cc(Br)ccc1O
GI50 [1]: 4.75 µM
TGI [1]: 18.6 µM
GI50 [2]: 2.84 µM
TGI [2]: 9.32 µM
GI50 [3]: 2.16 µM
TGI [3]: 6.05 µM
GI50 [4]: 5.33 µM
TGI [4]: 23 µM
GI50 [5]: 3.36 µM
TGI [5]: > 100 µM
GI50 [6]: 4.01 µM
TGI [6]: 18.6 µM
GI50 [7]: 3.15 µM
TGI [7]: 53.2 µM
GI50 [8]: 2.57 µM
TGI [8]: 8.58 µM
GI50 [9]: 3.38 µM
TGI [9]: 19.1 µM
GI50 [10]: 3.75 µM
TGI [10]: 50 µM

O=C(Nc1ccc(C(F)(F)F)cc1[N+](=O)[O-])c1cccnc1
TGI [1]: > 100 µM
TGI [2]: 7.29 µM
TGI [3]: 8.11 µM
TGI [4]: > 100 µM
TGI [5]: > 100 µM
TGI [6]: 25.5 µM
TGI [7]: > 100 µM
TGI [8]: > 100 µM
TGI [9]: > 100 µM
TGI [10]: > 100 µM

O=C(N/N=C/c1ccc(F)cc1)c1ccc(C(F)(F)F)nc1Nc1cccc(C(F)(F)F)c1
GI50 [1]: 0.902 µM
TGI [1]: 4.96 µM
GI50 [2]: 0.254 µM
TGI [2]: 0.713 µM
GI50 [3]: 0.34 µM
TGI [3]: 2.32 µM
GI50 [4]: 1.23 µM
TGI [4]: 4.82 µM
GI50 [5]: 1.28 µM
TGI [5]: 6.58 µM
GI50 [6]: 1.82 µM
TGI [6]: 4.87 µM
GI50 [7]: 0.426 µM
TGI [7]: 2.4 µM
GI50 [8]: 1.68 µM
TGI [8]: 4.84 µM
GI50 [9]: 2.58 µM
TGI [9]: 11.9 µM
GI50 [10]: 1.66 µM
TGI [10]: 4.04 µM

Nc1ncnc2c1nc(Cl)n2C1OC(CO)C(O)C1O (centres undefined)
TGI [2]: > 100 µM
TGI [3]: > 100 µM
TGI [4]: > 100 µM
TGI [5]: > 100 µM
TGI [6]: > 94.7 µM
TGI [7]: > 100 µM
TGI [8]: > 100 µM
TGI [9]: > 100 µM
TGI [10]: > 100 µM

COc1ccc(Cc2nc3cc(OC)c(OC)cc3c(=O)[nH]2)cc1
GI50 [1]: 2.98 µM
TGI [1]: 17.1 µM
GI50 [2]: 12.5 µM
TGI [2]: > 66.1 µM
GI50 [3]: 6.64 µM
TGI [3]: > 93.4 µM
GI50 [4]: 9.83 µM
TGI [4]: > 100 µM
GI50 [5]: 12.4 µM
TGI [5]: 59 µM
GI50 [6]: 7.97 µM
TGI [6]: 39.7 µM
GI50 [8]: 4.61 µM
TGI [8]: > 67.2 µM
GI50 [9]: 4.03 µM
TGI [9]: 33.1 µM
GI50 [10]: 9.14 µM
TGI [10]: > 100 µM

C=CCN=C(N/N=C/c1ccc([N+](=O)[O-])o1)NS(=O)(=O)c1cc(C(=O)Nc2ccccc2)c(Cl)cc1SCC(N)=O
GI50 [1]: 20.7 µM
TGI [1]: 40.6 µM
GI50 [2]: 14.7 µM
TGI [2]: 39.8 µM
GI50 [3]: > 100 µM
TGI [3]: > 100 µM
GI50 [4]: 14 µM
TGI [4]: 50.8 µM
GI50 [5]: > 100 µM
TGI [5]: > 100 µM
GI50 [6]: 18.8 µM
TGI [6]: 41.5 µM
GI50 [8]: 32.2 µM
TGI [8]: 97.3 µM
GI50 [9]: 20.9 µM
TGI [9]: 49.6 µM
GI50 [10]: > 100 µM
TGI [10]: > 100 µM

N/C(=N\C(N)=N\c1nc2ccccc2s1)c1cnccn1
GI50 [2]: 2.79 µM
TGI [2]: 7.86 µM
GI50 [3]: 2.14 µM
TGI [3]: 5.06 µM
GI50 [4]: 3.91 µM
TGI [4]: > 100 µM
GI50 [5]: 4.28 µM
TGI [5]: > 100 µM
GI50 [6]: 2.07 µM
TGI [6]: 4.12 µM
GI50 [7]: 4.32 µM
TGI [7]: > 100 µM
GI50 [9]: 3 µM
TGI [9]: 24.8 µM
GI50 [10]: 2.51 µM
TGI [10]: 6.6 µM

OCC#Cc1ccccc1C#Cc1ccc(C#Cc2ccccc2)cc1
GI50 [2]: 27.3 µM
TGI [2]: 48.7 µM
GI50 [3]: 44.5 µM
TGI [3]: > 100 µM
GI50 [4]: 20 µM
TGI [4]: 37.5 µM
GI50 [5]: 17.6 µM
TGI [5]: 59.1 µM
GI50 [6]: 21.4 µM
TGI [6]: 45.6 µM
GI50 [7]: 11.5 µM
TGI [7]: 44.8 µM
GI50 [8]: 28.4 µM
TGI [8]: > 100 µM
GI50 [9]: 18.2 µM
TGI [9]: 37 µM
GI50 [10]: 18.9 µM
TGI [10]: 37 µM

CCCCC[C@@H](C/C=C/CCC(=O)NC/C(=C/Cl)[C@H]1C(=O)C(C)(C)C(=O)[C@@H](C)[C@@]1(C)O)OC
GI50 [2]: 16.3 µM
TGI [2]: 30.5 µM
GI50 [3]: 18.2 µM
TGI [3]: 34.1 µM
GI50 [4]: 16 µM
TGI [4]: 32.3 µM
GI50 [5]: 20.8 µM
TGI [5]: 41.3 µM
GI50 [6]: 19.7 µM
TGI [6]: 35.2 µM
GI50 [7]: 20.7 µM
TGI [7]: 41.3 µM
GI50 [8]: 16.4 µM
TGI [8]: 31.3 µM
GI50 [9]: 17 µM
TGI [9]: 33.9 µM
GI50 [10]: 18 µM
TGI [10]: 32.6 µM
